Experimental findings from patent US11420973B2, “Amide substituted indole compounds useful as TLR inhibitors” (BRISTOL-MYERS SQUIBB COMPANY, priority 2017, dated 2022) are described below.

For orientation: IC50 means the point on the concentration scale where inhibition reaches its midpoint.

For assay [1], the target named is human TLR7 (Homo sapiens (Human), UniProt Q9NYK1). The assay is described as follows: TLR7 inhibition reporter assay (HEK-Blue SEAP reporter, gardiquimod stimulation). It is filed as cell-based. The note with it: HEK-Blue cells overexpressing human TLR7, gardiquimod 7.5 μM.
Chain of human TLR7 (Q9NYK1 27-1049): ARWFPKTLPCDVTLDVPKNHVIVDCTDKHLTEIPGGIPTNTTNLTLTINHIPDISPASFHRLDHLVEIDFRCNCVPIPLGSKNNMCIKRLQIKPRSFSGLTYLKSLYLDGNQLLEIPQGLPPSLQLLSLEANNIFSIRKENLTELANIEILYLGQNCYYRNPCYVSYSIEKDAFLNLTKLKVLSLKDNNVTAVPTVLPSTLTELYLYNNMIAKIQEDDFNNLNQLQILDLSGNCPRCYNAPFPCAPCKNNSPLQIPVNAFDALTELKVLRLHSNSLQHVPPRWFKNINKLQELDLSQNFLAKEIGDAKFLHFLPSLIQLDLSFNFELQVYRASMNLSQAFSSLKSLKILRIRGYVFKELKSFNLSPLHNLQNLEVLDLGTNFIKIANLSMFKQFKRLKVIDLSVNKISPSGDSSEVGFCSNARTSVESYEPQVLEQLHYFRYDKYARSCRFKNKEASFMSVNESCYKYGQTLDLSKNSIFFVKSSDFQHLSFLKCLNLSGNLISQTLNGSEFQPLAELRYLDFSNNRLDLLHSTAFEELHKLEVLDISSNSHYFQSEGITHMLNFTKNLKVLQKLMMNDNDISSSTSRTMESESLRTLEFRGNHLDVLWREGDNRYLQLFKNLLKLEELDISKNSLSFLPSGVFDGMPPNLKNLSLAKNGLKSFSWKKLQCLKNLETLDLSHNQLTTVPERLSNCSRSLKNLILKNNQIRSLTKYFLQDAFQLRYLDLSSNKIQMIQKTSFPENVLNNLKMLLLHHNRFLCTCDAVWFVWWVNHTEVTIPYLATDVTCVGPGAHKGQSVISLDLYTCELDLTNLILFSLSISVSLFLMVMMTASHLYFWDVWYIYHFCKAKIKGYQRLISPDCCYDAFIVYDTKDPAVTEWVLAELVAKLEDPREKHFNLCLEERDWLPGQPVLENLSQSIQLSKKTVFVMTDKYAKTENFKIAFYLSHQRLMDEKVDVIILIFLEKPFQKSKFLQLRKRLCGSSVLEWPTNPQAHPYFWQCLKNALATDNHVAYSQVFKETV
The target in assay [2] is human TLR9 (Homo sapiens (Human), UniProt Q9NR96). The assay is described as follows: TLR9 inhibition reporter assay (HEK-Blue SEAP reporter, ODN2006 stimulation).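 Note: SEAP reporter under IFN-β minimal promoter with five NF-κB and AP-1 sites, 22 h incubation, compounds 0.05 nM–50 µM, inhibition relative to agonist plus DMSO versus known inhibitor.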 The note with it: read-out: TLR9 IC50; HEK-Blue cells overexpressing human TLR9, ODN2006 5 nM, SEAP reporter. (Reporter assays use an easily measured gene product as a stand-in for the process of interest.)
Chain of human TLR9 (Q9NR96 26-1032): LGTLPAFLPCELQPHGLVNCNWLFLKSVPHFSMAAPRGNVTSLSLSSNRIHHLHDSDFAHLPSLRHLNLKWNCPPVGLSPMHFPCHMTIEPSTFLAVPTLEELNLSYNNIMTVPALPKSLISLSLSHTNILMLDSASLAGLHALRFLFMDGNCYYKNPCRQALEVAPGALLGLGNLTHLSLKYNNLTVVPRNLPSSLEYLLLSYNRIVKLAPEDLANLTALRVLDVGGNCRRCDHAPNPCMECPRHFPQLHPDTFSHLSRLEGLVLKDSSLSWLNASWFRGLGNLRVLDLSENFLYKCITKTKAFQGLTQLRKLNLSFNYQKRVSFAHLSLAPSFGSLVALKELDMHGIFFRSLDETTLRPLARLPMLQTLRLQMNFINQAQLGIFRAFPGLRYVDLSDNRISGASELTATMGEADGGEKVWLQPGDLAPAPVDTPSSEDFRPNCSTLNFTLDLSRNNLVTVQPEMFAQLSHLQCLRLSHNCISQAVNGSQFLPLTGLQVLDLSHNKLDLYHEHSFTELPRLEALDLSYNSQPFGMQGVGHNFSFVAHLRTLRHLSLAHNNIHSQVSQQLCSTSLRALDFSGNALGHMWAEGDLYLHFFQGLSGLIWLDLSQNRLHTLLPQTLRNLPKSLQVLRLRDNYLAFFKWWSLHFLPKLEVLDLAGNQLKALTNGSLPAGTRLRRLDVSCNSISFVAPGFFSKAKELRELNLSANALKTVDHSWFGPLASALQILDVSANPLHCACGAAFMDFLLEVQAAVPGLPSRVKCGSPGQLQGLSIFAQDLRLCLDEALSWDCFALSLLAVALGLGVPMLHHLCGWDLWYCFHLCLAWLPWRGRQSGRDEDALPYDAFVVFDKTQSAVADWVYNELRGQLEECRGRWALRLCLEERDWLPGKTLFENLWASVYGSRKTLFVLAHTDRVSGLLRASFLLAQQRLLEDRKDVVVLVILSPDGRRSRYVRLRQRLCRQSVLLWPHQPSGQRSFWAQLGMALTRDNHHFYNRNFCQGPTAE
Assay [3] addresses human TLR8 (Homo sapiens (Human), UniProt Q9NR97). Put plainly: TLR8 inhibition reporter assay (HEK-Blue SEAP reporter, R848 stimulation).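 Note: SEAP driven by IFN-β minimal promoter with NF-κB and AP-1 sites, 22 h incubation, compounds 0.05 nM–50 µM, inhibition scaled between agonist plus DMSO and reference inhibitor wells.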 The note with it: read-out: TLR8 IC50; HEK-Blue cells overexpressing human TLR8, R848 15.9 μM, SEAP reporter.

Chain of human TLR8 (Q9NR97 27-1041): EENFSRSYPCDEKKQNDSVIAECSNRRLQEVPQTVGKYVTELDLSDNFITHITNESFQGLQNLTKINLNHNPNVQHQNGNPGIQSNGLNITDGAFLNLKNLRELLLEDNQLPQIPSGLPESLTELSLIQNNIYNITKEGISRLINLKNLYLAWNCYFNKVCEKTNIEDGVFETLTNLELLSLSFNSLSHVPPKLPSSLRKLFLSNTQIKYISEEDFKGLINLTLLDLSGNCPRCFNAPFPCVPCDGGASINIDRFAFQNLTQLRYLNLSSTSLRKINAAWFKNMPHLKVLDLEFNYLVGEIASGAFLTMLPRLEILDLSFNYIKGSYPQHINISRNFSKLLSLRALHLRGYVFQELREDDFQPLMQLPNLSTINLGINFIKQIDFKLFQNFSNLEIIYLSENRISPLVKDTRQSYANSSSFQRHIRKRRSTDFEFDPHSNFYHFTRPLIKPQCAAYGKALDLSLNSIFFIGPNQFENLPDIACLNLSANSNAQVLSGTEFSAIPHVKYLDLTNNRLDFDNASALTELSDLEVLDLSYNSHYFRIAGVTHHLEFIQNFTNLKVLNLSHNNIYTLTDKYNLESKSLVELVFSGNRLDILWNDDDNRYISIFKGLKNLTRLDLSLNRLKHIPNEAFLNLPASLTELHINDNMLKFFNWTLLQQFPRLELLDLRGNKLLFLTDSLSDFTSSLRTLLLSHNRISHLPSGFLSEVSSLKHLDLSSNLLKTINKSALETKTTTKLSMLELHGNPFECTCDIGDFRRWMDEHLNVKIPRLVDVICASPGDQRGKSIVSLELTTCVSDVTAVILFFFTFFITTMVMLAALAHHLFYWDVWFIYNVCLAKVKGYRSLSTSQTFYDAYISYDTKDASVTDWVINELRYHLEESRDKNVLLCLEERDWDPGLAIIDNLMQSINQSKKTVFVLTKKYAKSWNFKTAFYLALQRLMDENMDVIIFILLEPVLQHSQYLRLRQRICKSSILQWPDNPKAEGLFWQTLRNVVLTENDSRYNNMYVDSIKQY

With `CCc1c(-c2ccc(OC)c(OC)c2)[nH]c2ccc(C(=O)N3CCN(C(C)C)CC3)cc12` [Example 38, (2-(3,4-dimethoxyphenyl)-3-ethyl-1H-indol-5-yl)(4-isopropylpiperazin-1-yl)methanone], the IC50 was determined as 299 nM in assay [1], 5270 nM in assay [2] and 1.2 nM in assay [3].
For `CCc1c(-c2ccc(OC)c(OC)c2)[nH]c2ccc(C(=O)N3CCN(CC)CC3)cc12` [Example 39, (2-(3,4-dimethoxyphenyl)-3-ethyl-1H-indol-5-yl)(4-ethylpiperazin-1-yl)methanone], in that order: 367 nM, 4410 nM and 2.2 nM.
Taken in the same sequence, the figures for `CCc1c(-c2ccc(OC)c(OC)c2)[nH]c2ccc(C(=O)N3CCN(CCO)CC3)cc12` [Example 40, (2-(3,4-dimethoxyphenyl)-3-ethyl-1H-indol-5-yl)(4-(2-hydroxyethyl)piperazin-1-yl)methanone] were 545 nM, 8700 nM and 5.7 nM.
Taken in the same sequence, the figures for `CCc1c(-c2ccc(OC)c(OC)c2)[nH]c2ccc(C(=O)N3CCN(CCOC)CC3)cc12` [Example 41, (2-(3,4-dimethoxyphenyl)-3-ethyl-1H-indol-5-yl)(4-(2-methoxyethyl)piperazin-1-yl)methanone] were 1140 nM, 26700 nM and 12 nM.
As to `CCc1c(-c2ccc(OC)c(OC)c2)[nH]c2ccc(C(=O)N3CCN(CCN4CCOCC4)CC3)cc12` [Example 42, (2-(3,4-dimethoxyphenyl)-3-ethyl-1H-indol-5-yl)(4-(2-morpholinoethyl)piperazin-1-yl)methanone], the IC50 in assay [1] worked out at 751 nM; in assay [2], 9670 nM; in assay [3], 15 nM.
Taken in the same sequence, the figures for `CCc1c(-c2ccc(OC)c(OC)c2)[nH]c2ccc(C(=O)NCc3ccco3)cc12` [Example 43, 2-(3,4-dimethoxyphenyl)-3-ethyl-N-(furan-2-ylmethyl)-1H-indole-5-carboxamide] were 2500 nM, > 50000 nM and 572 nM.
For `CCc1c(-c2ccc(OC)c(OC)c2)[nH]c2ccc(C(=O)NCc3ccccn3)cc12` [Example 44, 2-(3,4-dimethoxyphenyl)-3-ethyl-N-(pyridin-2-ylmethyl)-1H-indole-5-carboxamide], the IC50 was found to be 1940 nM in assay [1], 44800 nM in assay [2] and 412 nM in assay [3].
With `CCc1c(-c2ccc(OC)c(OC)c2)[nH]c2ccc(C(=O)NCc3csc(-c4ccccc4)n3)cc12` [Example 45, 2-(3,4-dimethoxyphenyl)-3-ethyl-N-((2-phenylthiazol-4-yl)methyl)-1H-indole-5-carboxamide], the results for the IC50 in assay [1], in assay [2] and in assay [3] were 2240 nM, > 50000 nM and 1040 nM, respectively.
Taken in the same sequence, the figures for `CCc1c(-c2ccc(OC)c(OC)c2)[nH]c2ccc(C(=O)NCc3ccc(N4CCNCC4)cc3)cc12` [Example 46, 2-(3,4-dimethoxyphenyl)-3-ethyl-N-(4-(piperazin-1-yl)benzyl)-1H-indole-5-carboxamide] were 391 nM, 931 nM and 60 nM.
`CCc1c(-c2ccc(OC)c(OC)c2)[nH]c2ccc(C(=O)NCCN3CCCC3)cc12` [Example 48, 2-(3,4-dimethoxyphenyl)-3-ethyl-N-(2-(pyrrolidin-1-yl)ethyl)-1H-indole-5-carboxamide]: the figures for the IC50 in assay [1], in assay [2] and in assay [3] were 144 nM, 2700 nM and 4.8 nM, respectively.
Taken in the same sequence, the figures for `CCc1c(-c2ccc(OC)c(OC)c2)[nH]c2ccc(C(=O)NCc3ccc(N)cc3)cc12` [Example 52, N-(4-aminobenzyl)-2-(3,4-dimethoxyphenyl)-3-ethyl-1H-indole-5-carboxamide] were 2380 nM, > 50000 nM and 243 nM.
Taken in the same sequence, the figures for `CCc1c(-c2ccc(OC)c(OC)c2)[nH]c2ccc(C(=O)NCCCN3CCCCC3)cc12` [Example 53, 2-(3,4-dimethoxyphenyl)-3-ethyl-N-(3-(piperidin-1-yl)propyl)-1H-indole-5-carboxamide] were 258 nM, 2000 nM and 8.1 nM.
In the case of `CCc1c(-c2ccc(OC)c(OC)c2)[nH]c2ccc(C(=O)NCCC3CCCN3C)cc12` (stereo not drawn) [Example 54, 2-(3,4-dimethoxyphenyl)-3-ethyl-N-(2-(1-methylpyrrolidin-2-yl)ethyl)-1H-indole-5-carboxamide], the IC50 is 206 nM in assay [1], 1810 nM in assay [2] and 12 nM in assay [3].
For `CCc1c(-c2ccc(OC)c(OC)c2)[nH]c2ccc(C(=O)NCCCN3CCN(C)CC3)cc12` [Example 55, 2-(3,4-dimethoxyphenyl)-3-ethyl-N-(3-(4-methylpiperazin-1-yl)propyl)-1H-indole-5-carboxamide], in that order: 954 nM, 2090 nM and 16 nM.
Regarding `CCc1c(-c2ccc(OC)c(OC)c2)[nH]c2ccc(C(=O)N3CCC(N4CCCCC4)CC3)cc12` [Example 56, [1,4′-bipiperidin]-1′-yl(2-(3,4-dimethoxyphenyl)-3-ethyl-1H-indol-5-yl)methanone], the IC50 in assay [1] came out at 112 nM; in assay [2] it was 2190 nM; in assay [3] it was 13 nM.
Taken in the same sequence, the figures for `CCc1c(-c2ccc(OC)c(OC)c2)[nH]c2ccc(C(=O)N3CCN(c4ncccn4)CC3)cc12` [Example 57, (2-(3,4-dimethoxyphenyl)-3-ethyl-1H-indol-5-yl)(4-(pyrimidin-2-yl)piperazin-1-yl)methanone] were 577 nM, > 50000 nM and 218 nM.
Taken in the same sequence, the figures for `CCc1c(-c2ccc(OC)c(OC)c2)[nH]c2ccc(C(=O)N3CCN(C(=O)c4ccco4)CC3)cc12` [Example 60, (2-(3,4-dimethoxyphenyl)-3-ethyl-1H-indol-5-yl)(4-(furan-2-carbonyl)piperazin-1-yl)methanone] were 206 nM, > 50000 nM and 115 nM.
For `CCc1c(-c2ccc(OC)c(OC)c2)[nH]c2ccc(C(=O)N3CCN(c4ccc(C(F)(F)F)cn4)CC3)cc12` [Example 61, (2-(3,4-dimethoxyphenyl)-3-ethyl-1H-indol-5-yl)(4-(5-(trifluoromethyl)pyridin-2-yl)piperazin-1-yl)methanone], in that order: 4120 nM, 10200 nM and 1620 nM.
For `CCc1c(-c2ccc(OC)c(OC)c2)[nH]c2ccc(C(=O)N3CCNC(=O)C3)cc12` [Example 62, 4-(2-(3,4-dimethoxyphenyl)-3-ethyl-1H-indole-5-carbonyl)piperazin-2-one], the IC50 was 493 nM in assay [1], > 50000 nM in assay [2] and 381 nM in assay [3].
For `CCc1c(-c2ccc(OC)c(OC)c2)[nH]c2ccc(C(=O)N3CCC(n4c(=O)[nH]c5ccccc54)CC3)cc12` [Example 63, 1-(1-(2-(3,4-dimethoxyphenyl)-3-ethyl-1H-indole-5-carbonyl)piperidin-4-yl)-1,3-dihydro-2H-benzo[d]imidazol-2-one], the results for the IC50 in assay [1], in assay [2] and in assay [3] were 801 nM, 13600 nM and 464 nM, respectively.
For `CCc1c(-c2ccc(OC)c(OC)c2)[nH]c2ccc(C(=O)N3CCCN(c4ncccn4)CC3)cc12` [Example 64, (2-(3,4-dimethoxyphenyl)-3-ethyl-1H-indol-5-yl)(4-(pyrimidin-2-yl)-1,4-diazepan-1-yl)methanone], the results for the IC50 in assay [1], in assay [2] and in assay [3] were 1280 nM, 16600 nM and 2190 nM, respectively.
Turning to `CCc1c(-c2ccc(OC)c(OC)c2)[nH]c2ccc(C(=O)N3CCCN(c4ccccn4)CC3)cc12` [Example 65, (2-(3,4-dimethoxyphenyl)-3-ethyl-1H-indol-5-yl)(4-(pyridin-2-yl)-1,4-diazepan-1-yl)methanone], the values for the IC50 in assay [1], in assay [2] and in assay [3] were 1210 nM, 7240 nM and 1630 nM, respectively.
Consider `CCc1c(-c2ccc(OC)c(OC)c2)[nH]c2ccc(C(=O)N3CCc4ccccc43)cc12` [Example 66, (2-(3,4-dimethoxyphenyl)-3-ethyl-1H-indol-5-yl)(indolin-1-yl)methanone], for which the IC50 in assay [1] is 3940 nM; in assay [2], > 50000 nM; in assay [3], 1170 nM.
Taken in the same sequence, the figures for `CCc1c(-c2ccc(OC)c(OC)c2)[nH]c2ccc(C(=O)NC(CO)CO)cc12` [Example 67, N-(1,3-dihydroxypropan-2-yl)-2-(3,4-dimethoxyphenyl)-3-ethyl-1H-indole-5-carboxamide] were 1770 nM, > 50000 nM and 412 nM.
For `CCc1c(-c2ccc(OC)c(OC)c2)[nH]c2ccc(C(=O)NCCC(N)=O)cc12` [Example 68, N-(3-amino-3-oxopropyl)-2-(3,4-dimethoxyphenyl)-3-ethyl-1H-indole-5-carboxamide], in that order: 1710 nM, > 50000 nM and 277 nM.
`CCc1c(-c2ccc(OC)c(OC)c2)[nH]c2ccc(C(=O)NCCO)cc12` [Example 69, 2-(3,4-dimethoxyphenyl)-3-ethyl-N-(2-hydroxyethyl)-1H-indole-5-carboxamide]: the IC50 in assay [1] was 968 nM; in assay [2], > 50000 nM; in assay [3], 274 nM.
Taken in the same sequence, the figures for `CCc1c(-c2ccc(OC)c(OC)c2)[nH]c2ccc(C(=O)NCCC(C)(C)NS(C)(=O)=O)cc12` [Example 71, 2-(3,4-dimethoxyphenyl)-3-ethyl-N-(3-methyl-3-(methylsulfonamido)butyl)-1H-indole-5-carboxamide] were 1630 nM, > 50000 nM and 439 nM.
